Where two headings read alike, the source gives them in different places.
What was measured:
[1] = test system: patients receiving icosapent ethyl therapy; assay: Postmarket safety analysis of icosapent ethyl (VASCEPA); type: in vivo, human
Description: Over 320,000 patients are currently receiving icosapent ethyl (referenced interchangeably with AMR101 or VASCEPA®) therapy. With over 7 years of postmarket experience, there have been no signals necessitating a label change and no actions taken for safety reasons. Of the patients undergoing treatment with icosapent ethyl, a total of 1,204 unique adverse events (AEs) have been reported. However, there have been no signals of atrial fibrillation and flutter identified in the postmarket reports.

[2] = test system: hypertriglyceridemic patients with cardiovascular disease or at high risk for cardiovascular disease; assay: REDUCE-IT: bleeding-related adverse events (serious and any, by category, preferred term, antithrombotic medication, fatal association); type: in vivo
Description: Adverse Events of Special Interest: Bleeding-related adverse events, glucose control (fasting blood glucose and HbA1c), and indicators of hepatic disorders (e.g., ALT or AST increases >3×ULN, total bilirubin increases of ≥2×ULN) were summarized separately and compared between treatment groups.
Due to the convergence of clinical events shortly before a patient's death, direct causality of an individual bleeding event with death cannot always be determined. Bleeding-related clinical events (i.e., TEAEs, SAEs, or positively adjudicated endpoints) that occurred proximal to death (per site Investigator, CEC, or Sponsor medical assessment) are presented in Table 82 and occurred in 23 (0.6%) patients in the AMR101 group and 34 (0.8%) patients in the placebo group, with no statistically significant difference between treatment groups (p=0.18). Sponsor medical assessment classified 20 (0.5%) patients in the AMR101 group and 23 (0.6%) patients in the placebo group as having a bleeding event that likely contributed to death, with no statistically significant difference between treatment groups (p=0.76). […] None of these 57 deaths were associated with study drug per Investigator assessment; one bleeding event in each treatment group was considered possibly related to study drug per Investigator assessment.
A summary of baseline or on-treatment anti-thrombic medication use by type in patients with serious bleeding events for the ITT population is provided in Tables 97A-97D.

[3] = test system: hypertriglyceridemic patients with cardiovascular disease or at high risk for cardiovascular disease; conditions: human, in vivo

CC/C=C\C/C=C\C/C=C\C/C=C\C/C=C\CCCC(=O)OCC [AMR101, eicosapentaenoic acid ethyl ester]
Individual serious AEs ([1]; human, in vivo): 69 | Serious and unexpected AE reports ([1]; human, in vivo): 48 | Unique adverse events (AEs) reported ([1]; human, in vivo): 1,204 | Unique nonserious AEs ([1]; human, in vivo): 1,156 | Reports with fatal outcomes ([1]; postmarket): Four | Bleeding event that did not likely contribute to death (Sponsor medical assessment), patients ([2]; Safety population): 3 (0.1%) n (%) | Bleeding event that likely contributed to death (Sponsor medical assessment), patients ([2]; Safety population): 20 (0.5%) n (%) | Bleeding-related clinical events that occurred proximal to death, patients ([2]; Safety population): 23 (0.6%) n (%) | Fatal bleeding events ([2]; Safety population): no fatal bleeding events | Bleeding Not Likely Contributing to a Fatal Event, % ([2]; Safety population N = 4089, P-value 0.06): (0.1) % | Any Bleeding with a Possible Fatal Association, % ([2]; Safety population N = 4089, P-value 0.18): (0.6) % | Bleeding Likely Contributing to a Fatal Event, % ([2]; Safety population N = 4089, P-value 0.76): (0.5) % | Fatal bleeding events ([2]; Safety population, listed as icosapent ethyl): no fatal bleeding observed in either group | Bleeding TEAEs, % ([2]; human, in vivo): (11.8) % | Bleeding-related disorders (bleeding TEAEs), patients ([2]; human, in vivo): 11.8% | Patients with any serious bleeding TEAE, % patients ([2]; human, in vivo): (2.7) % | Patients with any serious bleeding TEAE, n patients ([2]; human, in vivo): 111 | Patients with serious CNS bleeding, % patients ([2]; human, in vivo): (0.3) % | Patients with serious CNS bleeding, n patients ([2]; human, in vivo): 14 | Patients with serious Gl bleeding, % patients ([2]; human, in vivo): (1.5) % | Patients with serious Gl bleeding, n patients ([2]; human, in vivo): 62 | Patients with serious other bleeding, % patients ([2]; human, in vivo): (1.0) % | Patients with serious other bleeding, n patients ([2]; human, in vivo): 41 | Serious GI hemorrhage, patients ([2]; human, in vivo): 0.6% | Serious bleeding TEAE: Aortic Aneurysm Rupture ([2]; human, in vivo): 1 (0.0%) n (%) | Serious bleeding TEAE: Bleeding related disorders ([2]; human, in vivo): 111 (2.7%) n (%) | Serious bleeding TEAE: Brain Contusion ([2]; human, in vivo): 0 (0.0%) n (%) | Serious bleeding TEAE: Catheter Site Hemorrhage ([2]; human, in vivo): 0 (0.0%) n (%) | Serious bleeding TEAE: Central nervous system bleeding ([2]; human, in vivo): 14 (0.3%) n (%) | Serious bleeding TEAE: Cerebral Hemorrhage ([2]; human, in vivo): 0 (0.0%) n (%) | Serious bleeding TEAE: Cystitis Hemorrhagic ([2]; human, in vivo): 2 (0.0%) n (%) | Serious bleeding TEAE: Diverticulitis Intestinal Hemorrhagic ([2]; human, in vivo): 0 (0.0%) n (%) | Serious bleeding TEAE: Diverticulum Intestinal Hemorrhagic ([2]; human, in vivo): 3 (0.1%) n (%) | Serious bleeding TEAE: Duodenal Ulcer Hemorrhage ([2]; human, in vivo): 2 (0.0%) n (%) | Serious bleeding TEAE: Ecchymosis ([2]; human, in vivo): 1 (0.0%) n (%) | Serious bleeding TEAE: Epistaxis ([2]; human, in vivo): 7 (0.2%) n (%) | Serious bleeding TEAE: Esophageal Hemorrhage ([2]; human, in vivo): 0 (0.0%) n (%) | Serious bleeding TEAE: Extravasation Blood ([2]; human, in vivo): 1 (0.0%) n (%) | Serious bleeding TEAE: Gastric Hemorrhage ([2]; human, in vivo): 1 (0.0%) n (%) | Serious bleeding TEAE: Gastric Ulcer Hemorrhage ([2]; human, in vivo): 3 (0.1%) n (%) | Serious bleeding TEAE: Gastrointestinal Angiodysplasia Hemorrhagic ([2]; human, in vivo): 1 (0.0%) n (%) | Serious bleeding TEAE: Gastrointestinal bleeding ([2]; human, in vivo): 62 (1.5%) n (%) | Serious bleeding TEAE: Genital Hemorrhage ([2]; human, in vivo): 1 (0.0%) n (%) | Serious bleeding TEAE: Hemarthrosis ([2]; human, in vivo): 0 (0.0%) n (%) | Serious bleeding TEAE: Hematemesis ([2]; human, in vivo): 3 (0.1%) n (%) | Serious bleeding TEAE: Hematochezia ([2]; human, in vivo): 1 (0.0%) n (%) | Serious bleeding TEAE: Hematoma ([2]; human, in vivo): 1 (0.0%) n (%) | Serious bleeding TEAE: Hemoptysis ([2]; human, in vivo): 1 (0.0%) n (%) | Serious bleeding TEAE: Hemorrhagic Anemia ([2]; human, in vivo): 4 (0.1%) n (%) | Serious bleeding TEAE: Hemorrhagic Duodenitis ([2]; human, in vivo): 0 (0.0%) n (%) | Serious bleeding TEAE: Hemorrhagic Transformation Stroke ([2]; human, in vivo): 1 (0.0%) n (%) | Serious bleeding TEAE: Hemorrhoidal Hemorrhage ([2]; human, in vivo): 3 (0.1%) n (%) | Serious bleeding TEAE: Hemothorax ([2]; human, in vivo): 1 (0.0%) n (%) | Serious bleeding TEAE: Immune Thrombocytopenic Purpura ([2]; human, in vivo): 0 (0.0%) n (%) | Serious bleeding TEAE: Intra-Abdominal Hemorrhage ([2]; human, in vivo): 1 (0.0%) n (%) | Serious bleeding TEAE: Intracranial Hemorrhage ([2]; human, in vivo): 0 (0.0%) n (%) | Serious bleeding TEAE: Large Intestinal Hemorrhage ([2]; human, in vivo): 1 (0.0%) n (%) | Serious bleeding TEAE: Lower Gastrointestinal Hemorrhage ([2]; human, in vivo): 5 (0.1%) n (%) | Serious bleeding TEAE: Mallory-Weiss Syndrome ([2]; human, in vivo): 1 (0.0%) n (%) | Serious bleeding TEAE: Melaena ([2]; human, in vivo): 3 (0.1%) n (%) | Serious bleeding TEAE: Menorrhagia ([2]; human, in vivo): 1 (0.0%) n (%) | Serious bleeding TEAE: Mouth Hemorrhage ([2]; human, in vivo): 0 (0.0%) n (%) | Serious bleeding TEAE: Other bleeding ([2]; human, in vivo): 41 (1.0%) n (%) | Serious bleeding TEAE: Pancreatitis Hemorrhagic ([2]; human, in vivo): 1 (0.0%) n (%) | Serious bleeding TEAE: Peptic Ulcer Hemorrhage ([2]; human, in vivo): 1 (0.0%) n (%) | Serious bleeding TEAE: Pericardial Hemorrhage ([2]; human, in vivo): 0 (0.0%) n (%) | Serious bleeding TEAE: Post Procedural Hematoma ([2]; human, in vivo): 1 (0.0%) n (%) | Serious bleeding TEAE: Post Procedural Hematuria ([2]; human, in vivo): 0 (0.0%) n (%) | Serious bleeding TEAE: Post Procedural Hemorrhage ([2]; human, in vivo): 5 (0.1%) n (%) | Serious bleeding TEAE: Renal Hemorrhage ([2]; human, in vivo): 0 (0.0%) n (%) | Serious bleeding TEAE: Retinal Hemorrhage ([2]; human, in vivo): 1 (0.0%) n (%) | Serious bleeding TEAE: Retroperitoneal Hematoma ([2]; human, in vivo): 0 (0.0%) n (%) | Serious bleeding TEAE: Retroperitoneal Hemorrhage ([2]; human, in vivo): 1 (0.0%) n (%) | Serious bleeding TEAE: Shock Hemorrhagic ([2]; human, in vivo): 2 (0.0%) n (%) | Serious bleeding TEAE: Subarachnoid Hemorrhage ([2]; human, in vivo): 2 (0.0%) n (%) | Serious bleeding TEAE: Subdural Hemorrhage ([2]; human, in vivo): 2 (0.0%) n (%) | Serious bleeding TEAE: Traumatic Hematoma ([2]; human, in vivo): 2 (0.0%) n (%) | Serious bleeding TEAE: Traumatic Intracranial Hemorrhage ([2]; human, in vivo): 0 (0.0%) n (%) | Serious bleeding TEAE: Ulcer Hemorrhage ([2]; human, in vivo): 1 (0.0%) n (%) | Serious bleeding TEAE: Upper Gastrointestinal Hemorrhage ([2]; human, in vivo): 3 (0.1%) n (%) | Serious bleeding TEAE: Urinary Bladder Hemorrhage ([2]; human, in vivo): 1 (0.0%) n (%) | Serious bleeding TEAEs, % ([2]; human, in vivo): (2.7) % | Serious bleeding TEAEs, patients ([2]; human, in vivo): 2.7% | Serious bleeding adverse event - Epistaxis, % patients ([2]; human, in vivo): (0.2) % | Serious bleeding adverse event - Epistaxis, n patients ([2]; human, in vivo): 7 | Serious bleeding adverse event - Gl hemorrhage, % patients ([2]; human, in vivo): (0.6) % | Serious bleeding adverse event - Gl hemorrhage, n patients ([2]; human, in vivo): 26 | Serious bleeding adverse event - Hematuria, % patients ([2]; human, in vivo): (0.2) % | Serious bleeding adverse event - Hematuria, n patients ([2]; human, in vivo): 8 | Serious bleeding adverse event - Rectal hemorrhage, % patients ([2]; human, in vivo): (0.2) % | Serious bleeding adverse event - Rectal hemorrhage, n patients ([2]; human, in vivo): 10 | Serious bleeding adverse event - Subdural hematoma, % patients ([2]; human, in vivo): (0.2) % | Serious bleeding adverse event - Subdural hematoma, n patients ([2]; human, in vivo): 9 | Serious central nervous system bleeding, patients ([2]; human, in vivo): 0.3% | Serious gastrointestinal bleeding, patients ([2]; human, in vivo): 1.5% | TEAE of special interest: Bleeding-related disorders, % ([2]; human, in vivo): (11.8) % | TEAE of special interest: Central nervous system bleeding, % ([2]; human, in vivo): (0.5) % | TEAE of special interest: Gastrointestinal bleeding, % ([2]; human, in vivo): (3.1) % | TEAE of special interest: Other bleeding, % ([2]; human, in vivo): (9.2) % | Serious bleeding TEAE: Gastrointestinal Hemorrhage ([2]; human, in vivo, 4.9 years): 26 (0.6%) n (%) | Serious bleeding TEAE: Hematuria ([2]; human, in vivo, 4.9 years): 8 (0.2%) n (%) | Serious bleeding TEAE: Rectal Hemorrhage ([2]; human, in vivo, 4.9 years): 10 (0.2%) n (%) | Serious bleeding TEAE: Subdural Hematoma ([2]; human, in vivo, 4.9 years): 9 (0.2%) n (%) | Patients with any bleeding/at risk ([2]; on treatment: Clopidogrel, ITT): 124/951 | TEAE: Infections and infestations, % ([3]; female): (48.9) % | SAE class infections and infestations, patients [3]: 8.1% | Serious adverse event - Infections and infestations (SOC), % patients [3]: (8.1) % | Serious adverse event - Infections and infestations (SOC), n patients [3]: 332 | Serious adverse event - Sepsis, % patients [3]: (0.6) % | Serious adverse event - Sepsis, n patients [3]: 25 | Serious adverse event - Urinary tract infection, % patients [3]: (0.6) % | Serious adverse event - Urinary tract infection, n patients [3]: 25 | Severe TEAE class infections and infestations, patients [3]: 5.1% | Severe TEAE: Infections and infestations, % [3]: (5.1) % | Severe TEAE: Sepsis, % [3]: (0.5) % | Severe TEAE: Urinary tract infection, % [3]: (0.3) % | TEAE class infections and infestations, patients [3]: 44.6% | TEAE: Upper respiratory tract infection, % [3]: (7.6) % | TEAE: Urinary tract infection, % [3]: (6.2) % | TEAE: Infections and infestations, % ([3]; male): (42.8) %

From patent US12427134B2, “Methods of reducing the risk of cardiovascular events in a subject with atrial fibrillation and/or atrial flutter” (priority 2019, dated 2025)
